Measurements taken from patent publication EP3502102A1, “STING INHIBITORS” (ECOLE POLYTECHNIQUE FEDERALE DE LAUSANNE (EPFL), priority 2017, dated 2019).
Blank lines part the entries; values can stand above or below the compound they belong to.

Assays:
STING [1] = target: T1, STING (Mus musculus, UniProt Q3TBT3); assay: Blue native gel assay of STING clusters; assay type: cell-based; design: expressed in transfected cells; host or cells: HEK293T; conditions: C-178, C-176 1 µM, 2-BP 50 µM; CMA 1.5 h
T1 sequence (Q3TBT3 1-378): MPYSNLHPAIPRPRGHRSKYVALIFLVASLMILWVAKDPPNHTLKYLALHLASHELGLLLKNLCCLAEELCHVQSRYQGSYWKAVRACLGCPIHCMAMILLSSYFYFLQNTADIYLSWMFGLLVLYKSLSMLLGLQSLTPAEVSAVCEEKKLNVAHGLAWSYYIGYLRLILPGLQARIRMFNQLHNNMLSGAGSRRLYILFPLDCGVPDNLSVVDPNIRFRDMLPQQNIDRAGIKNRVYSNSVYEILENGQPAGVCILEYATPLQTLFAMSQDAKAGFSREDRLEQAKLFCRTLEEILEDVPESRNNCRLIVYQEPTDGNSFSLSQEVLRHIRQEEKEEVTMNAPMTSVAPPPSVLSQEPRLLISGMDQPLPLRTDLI
Description: (§1) Reporter activity was measured 16 h after compound treatment. A nonlinear regression analysis was performed. […] Circles indicate substitutes compared to C-176. d, e, Chemical compounds from (c) were tested at 0.5 µM for inhibitory activity in HEK293T cells transfected with STING (e) or RIG-I (f) in conjunction with IFN-• luciferase reporter, respectively. b, e, f, Values of inhibitor-treated cells were normalized to DMSO-treated cells. […] Cytokine levels were normalized to DMSO-treated control cells. A nonlinear regression analysis was performed for cGAMP stimulation. b, c, BMDMs were pre-treated with C-178 (0.25 µM) and stimulated with cGAMP, cyclic di-GMP, CMA, 90mer dsDNA or LPS for 3 h. The induction of Ifnb1 mRNA levels was assessed by RT-qPCR. d, Heatmaps of RNA sequencing analysis of BMDMs treated with DMSO or CMA and with or without addition of C-178. […] Reporter activity was measured 16 h after transfection and values were normalized to DMSO-treated control cells. c, BMDMs were treated with C-178 (0.25 µM) for 1 h, washed or left untreated and after an additional hour stimulated with cGAMP. […] Flag-STING was immunoprecipitated from whole cell lysate and analysed by autoradiography. In parallel, cell lysates were analysed by immunoblotting for p-TBK1 and STING. d, HEK293T cells expressing STING were treated as indicated (C-178 (1 µM)) and stimulated with CMA for 1.5 h. […]

STING [2] = target: T1, STING; assay: IFN-beta luciferase reporter in HEK293T cells transfected with STING, alone or with a cyclic dinucleotide synthase; assay type: cell-based; design: expressed in transfected cells; host or cells: HEK293T
Description: Reporter activity was measured 16 h after compound treatment. A nonlinear regression analysis was performed. […] Cytokine levels were normalized to DMSO-treated control cells. […] Nuclei were stained with DAPI. […] Depicted genes were measured by RT-qPCR. […] 16 h later Luciferase activity was measured. […] Flag-STING was immunoprecipitated and analysed by autoradiography.
HEK293T cells expressing murine STING with an N-terminal mCherry-tag ^28 were transfected using GeneJuice (Millipore) with a construct encoding for cyclic di-GMP synthase in conjunction with an IFN-• firefly luciferase reporter plasmid. 3 h after transfection cells were seeded in […] (Corning) coated with library compounds. For each compounds, a 40 nl volume was selected to obtain a concentration of 10 µM in the assay plates. The amount of DMSO in each well was normalised to 0.1%. After overnight treatment, cells were lysed in lysis buffer (25 mM Tris-phosphate (pH 7.8), 2 mM DTT, 2 mM 1,2-diaminocyclohexane-N,N,N',N'-tetraacetic acid, 10% glycerol, 1% Triton® X-100) for 20 min followed by the addition of firefly luciferase. Reporter activity was measured using a Tecan Infinite plate reader. The screen was performed using on ∼ 20.000 compounds from a chemically diverse compound collection available at the BSF core facility at EPFL.
In these cells, transient transfection of vectors encoding for cyclic di-GMP synthase (cdG-Syn) and an IFN-• reporter leads to robust induction of firefly luciferase activity. We used this system to perform a high-throughput chemical screen with a library of ∼ 20.000 small molecule compounds (Fig. 6b). To increase the selectivity of candidate compounds against the STING pathway, hits from the primary screen were counter-screened for their effect on RIG-I-driven activation of the IFN-• reporter. […] To further validate the two small molecules, we treated wild-type HEK293T cells with C-178 and C-176, in which STING was either expressed alone or in conjunction with cdG-Syn. […] We next conducted a limited structure-activity relationship (SAR) analysis. Since both C-178 and C-176 share a characteristic nitrofuran moiety, we prepared analogues of C-176/8 in which this structural motif was substituted (Fig. 1c).

TLR-4 = target: T2, TLR-4 (Mus musculus, UniProt Q9QUK6); assay: Ifnb1 mRNA (RT-qPCR) in BMDMs stimulated with LPS (control); assay type: cell-based; conditions: 0.25 µM
T2 construct: endogenous in cells; host or cells: BMDMs from wild type mice
T2 sequence (Q9QUK6 26-835): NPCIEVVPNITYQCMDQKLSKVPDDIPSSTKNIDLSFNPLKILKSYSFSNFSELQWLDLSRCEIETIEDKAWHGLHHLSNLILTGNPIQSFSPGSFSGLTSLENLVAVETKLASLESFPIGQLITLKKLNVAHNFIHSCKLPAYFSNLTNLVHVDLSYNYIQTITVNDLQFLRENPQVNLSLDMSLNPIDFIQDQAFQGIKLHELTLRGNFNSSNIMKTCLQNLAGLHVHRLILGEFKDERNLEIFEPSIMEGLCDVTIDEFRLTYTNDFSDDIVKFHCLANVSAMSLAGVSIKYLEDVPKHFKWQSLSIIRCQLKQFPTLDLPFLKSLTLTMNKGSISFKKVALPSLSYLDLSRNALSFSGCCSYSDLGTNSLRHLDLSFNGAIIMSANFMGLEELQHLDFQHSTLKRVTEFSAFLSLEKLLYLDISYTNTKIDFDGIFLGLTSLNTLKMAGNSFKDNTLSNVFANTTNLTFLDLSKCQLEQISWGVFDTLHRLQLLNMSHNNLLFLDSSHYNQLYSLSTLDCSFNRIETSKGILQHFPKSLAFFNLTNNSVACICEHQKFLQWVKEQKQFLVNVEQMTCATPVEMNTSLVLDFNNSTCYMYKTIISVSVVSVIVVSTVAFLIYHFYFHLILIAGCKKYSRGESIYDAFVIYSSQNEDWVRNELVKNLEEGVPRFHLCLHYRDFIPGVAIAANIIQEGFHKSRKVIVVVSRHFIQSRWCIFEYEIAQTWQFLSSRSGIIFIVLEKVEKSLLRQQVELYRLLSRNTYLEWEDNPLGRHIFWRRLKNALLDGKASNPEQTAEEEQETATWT
T2 sequence (Q9JHF9 19-160 partner): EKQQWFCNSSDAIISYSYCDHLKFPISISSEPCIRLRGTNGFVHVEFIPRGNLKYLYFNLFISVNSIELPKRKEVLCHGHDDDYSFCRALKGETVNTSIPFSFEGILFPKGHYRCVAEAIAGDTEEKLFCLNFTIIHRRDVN
Description: as §1

BMDMs = assay: RNA sequencing of BMDMs with or without CMA; assay type: cell-based, mouse; conditions: pre-treatment with C-178, CMA
Description: as §1

[3] = target: T3, hsSTING(AA1-138)-mmSTING(AA138-378) (UniProt Q3TBT3+Q86WV6); assay: IFN reporter in HEK293T cells, chimeric construct 1; assay type: cell-based; conditions: reversed construct (human N-terminal, mouse C-terminal part); 0.5 µm
T3 construct: hsSTING(AA1-138)-mmSTING(AA138-378); expressed in transfected cells; host or cells: HEK293T
T3 sequence (Q86WV6 1-138, one chain of several): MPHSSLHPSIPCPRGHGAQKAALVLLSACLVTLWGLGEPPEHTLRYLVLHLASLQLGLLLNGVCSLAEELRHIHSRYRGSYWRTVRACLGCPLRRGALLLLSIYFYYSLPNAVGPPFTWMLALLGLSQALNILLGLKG
Description: as §1

STING [4] = target: T1, STING; assay: Type I IFN bioassay of BMDMs stimulated with cGAMP; assay type: cell-based; design: endogenous in cells; host or cells: BMDMs from wild type mice; conditions: BMDMs pre-treated, 0.02 µM- 2.5 µM, read-out: calculated IC50, production of type I IFNs
Description: as §1

SMILES: CCCCCCCCCCCCCCC(Br)C(=O)O (centres unmarked) [2-bromopalmitate, reference compound]
- assembly of STING clusters (STING [1]): blocked

- inhibitory capacity against STING (STING [2]; derivatives tested at 0.5 µM, HEK293T transfected with STING): inactive
SMILES: O=C(Nc1ccc(I)cc1)c1ccco1 [C-176-009]

SMILES: O=C(Nc1ccc2c(c1)oc1ccccc12)c1ccc([N+](=O)[O-])o1 [C-178, N-dibenzo[b,d]furan-3-yl-5-nitro-2-furamide]
- activity against the TLR-4 agonist LPS (TLR-4): not active
- significantly affected induced expression, number of the 500 most up-regulated genes after CMA (BMDMs): 498
- significantly affected induced expression, share of the 500 most up-regulated genes after CMA (BMDMs): 99.6%
- IFN reporter activity of chimeric construct [3]: inactive
- half-maximal inhibitory concentration (IC50) values, IFN-• reporter activity (STING [2]; wild-type HEK293T, STING expressed alone or in conjunction with cdG-Syn, 0.01-5µM, 16 h): nanomolar
- IC50 (STING [4]): ~23 nM
